In the OPERA property sets (Mansouri et al. 2018):

SMILES	melting point	boiling point	log10 Henry constant (atm·m³/mol)	log10 vapour pressure (mmHg)	ready biodegradability	log10 Koc (L/kg)	log10 Koa	log10 biodegradation half-life (days)
O=S1CCC1	31.5 °C							
NCCN1CCOCC1	25.6 °C	205 °C						
c1ccc2c(c1)OCCOCCOCCOCCO2	79 °C							
Cc1noc(NS(=O)(=O)c2ccc(N)cc2)c1C	191 °C							
Cc1cccc(C)c1[N+](=O)[O-]	15 °C	226 °C						
C[C@@H]1CC[C@@]2(OC1)O[C@H]1C[C@H]3[C@@H]4CC[C@H]5C[C@@H](O)CC[C@]5(C)[C@H]4CC(=O)[C@]3(C)[C@H]1[C@@H]2C	266 °C							
C=C(C)C	-140 °C	-6.9 °C	-0.662	3.36				
O=C(Cl)c1ccc([N+](=O)[O-])cc1	75 °C							
CC(=O)C[C@H](C)O		177 °C						
OC1CCCC1	-19 °C	140 °C		0.396				
Cc1c[nH]cn1	56 °C	263 °C						
CCCCOc1ccccc1OCCCC					not readily biodegradable			
CCCCCCCCCCCC(=O)O	43.2 °C	299 °C		-4.8				
COc1cc(C(Cl)(Cl)Cl)cc(Cl)n1						3.48		
CCCC=NO	-29.5 °C	154 °C						
O=S1(=O)CCCCO1	13.5 °C							
ICCCI	-20 °C							
OCCC(F)(F)C(F)(F)C(F)(F)C(F)(F)C(F)(F)C(F)(F)C(F)(F)C(F)(F)F					not readily biodegradable			
CCOC(=O)C1OC1(C)c1ccccc1 (stereo not drawn)		274 °C						
CC1CNCC(C)O1 (stereo not drawn)	-88 °C	147 °C						
CC1(C)CC[C@]2(C)CC=C3[C@]4(C)CC[C@H]5C(C)(C)[C@@H](O)CC[C@]5(C)[C@H]4CC[C@@]3(C)[C@@H]2C1	284 °C							
Nc1ncnc2c1ncn2[C@@H]1O[C@H](CO)[C@@H](OP(=O)(O)O)[C@H]1O	197 °C							

SMILES	melting point	boiling point	log10 Henry constant (atm·m³/mol)	log10 vapour pressure (mmHg)	ready biodegradability	log10 Koc (L/kg)	log10 Koa	log10 biodegradation half-life (days)
CNCc1ccccc1		180 °C						
C=C[C@@]1(C)C=C2CC[C@@H]3[C@](C)(CCC[C@@]3(C)C(=O)O)[C@H]2CC1	218 °C							
C=CC(CC)c1ccccc1 (stereo not drawn)		192 °C						
COc1ccc2[nH]c3c(c2c1)CCNC3C (stereo not drawn)	150 °C							
O=C(O)CSc1ccccc1	65 °C							
Cc1cccc[n+]1[O-]	49 °C							
c1ccc2c(c1)Sc1ccccc1S2	159 °C	365 °C			not readily biodegradable			
c1ccc(-c2ccc3ccccc3c2)cc1	104 °C	346 °C		-4.46				
CC(Br)C(=O)O (stereo not drawn)		203 °C						
CCCN(CCC)S(=O)(=O)c1ccc(C(=O)O)cc1	195 °C							
C/C(=C/CC[C@@]1(C)C2C[C@@H]3[C@H](C2)C31C)CO		302 °C						
OC[C@@H]1CCCNC1	61 °C							
C=C(Cl)Cl	-122 °C	31.6 °C	-1.58	2.78	not readily biodegradable	1.81		
CCCCOCCOC(=O)CCCOc1ccc(Cl)cc1Cl						2.7		
C=CC(OCC)OCC		124 °C						
CCC(C)OC (stereo not drawn)	-100 °C	65 °C		2.32				
NC(=O)NO	141 °C							
CCC(CC)COC(=O)CCCCC(=O)OCC(CC)CC	-15 °C							
NNc1ccc(S(=O)(=O)O)cc1	286 °C							
CCC(C)=NNc1ccc([N+](=O)[O-])cc1[N+](=O)[O-]	117 °C							
S=C(SSSSC(=S)N1CCCCC1)N1CCCCC1					not readily biodegradable			
C#COCC		50 °C						

SMILES	melting point	boiling point	log10 Henry constant (atm·m³/mol)	log10 vapour pressure (mmHg)	ready biodegradability	log10 Koc (L/kg)	log10 Koa	log10 biodegradation half-life (days)
CCN(CC)C(=O)SCc1ccc(Cl)cc1	3.3 °C			-4.66		3.27		
CCCC(=O)OCc1ccccc1		239 °C						
C[C@@H]1CC[C@@]2(OC1)O[C@H]1C[C@H]3[C@@H]4CC=C5C[C@@H](O)CC[C@]5(C)[C@H]4CC[C@]3(C)[C@H]1[C@@H]2C	206 °C							
CB(C)Cl		4.9 °C						
CC(C)(C#N)Nc1nc(Cl)nc(NC2CC2)n1	170 °C							
CC(=O)Oc1ccccc1C(=O)O	135 °C			-4.6	readily biodegradable			
O=[N+]([O-])c1ccc(Cl)c(Cl)c1	43 °C	256 °C	-5.09	-1.99	not readily biodegradable	2.53		
CCSCC(=O)O	-8.5 °C							
CCCCCCCCCCCCCOP(Oc1ccccc1)Oc1ccccc1					not readily biodegradable			
C[C@]12CC[C@H](O[C@@H]3O[C@H](CO[C@@H]4O[C@H](CO)[C@@H](O)[C@H](O)[C@H]4O)[C@@H](O)[C@H](O)[C@H]3O)C[C@@H]1CC[C@@H]1[C@@H]2CC[C@]2(C)[C@@H](C3=CC(=O)OC3)CC[C@]12O	269 °C							
O=C(Cl)CCc1ccccc1	-2 °C							
CCOc1ccc(Cc2nc(C)cc3cc(OC)c(OC)cc23)cc1OC	124 °C							
C[Si](C)(C)CO		121 °C						
Nc1cccc2ccc(O)cc12	206 °C							
CC(Cl)CCl (stereo not drawn)	-100 °C	95.5 °C	-2.55	1.73	not readily biodegradable	1.67	2.96	
CCC(C)(C)C(C)C	-101 °C	115 °C		1.43				1.72
BrCC(CBr)(CBr)CBr	163 °C	306 °C			not readily biodegradable			
COC(=O)c1ccc([N+](=O)[O-])cc1	95 °C							
CC#CC=CC		88.5 °C						
FC(F)(F)C(Cl)Br (stereo not drawn)	-118 °C	50.2 °C	-1.69	2.48				
COC(=O)c1ccc(Cl)cc1[N+](=O)[O-]	44 °C							
CC(C)COC(=O)CC(C)C		168 °C		0.266				
